Test results as given in patent publication EP1247803A2, “Indolinone compounds suitable for modulation of protein kinases” (Sugen, Inc., priority 1996, dated 1998).

Tests used:
[1] = target: PDGF-R (Homo sapiens, UniProt P09619); experiment: PDGF-R ELISA; type: cell-based
Text: A PDGF-R ELISA is described in International Patent Publication No. WO 96/40116, published December 19, 1996 by Tang et al.

[2] = test system: MET; experiment: MET biochemical kinase assay; parameters: species or system human; concentration or dose not given beside the values
In short: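 Colorimetric signal from an HRP-linked anti-phosphotyrosine antibody with TMB measures phosphate incorporated into immobilised MET. The receptor is pulled from lysates by a polyclonal antibody against its cytoplasmic domain, then reacts in ATP- and metal-containing buffer with test compound.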

[3] = target: T1, EGFR (Homo sapiens, UniProt P00533); experiment: EGFR ELISA assay (in vitro kinase activity, EGFR captured from A431 cell lysate); type: biochemical; parameters: concentration or dose not given beside the values
T1 construct: Add 7 ug A431 cell lysate per well (EGFR source); endogenous in cells; host or cells: A431
In short: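 Receptor autophosphorylation was read by ELISA: anti-phosphotyrosine serum and an HRP-linked secondary with ABTS substrate, absorbance at 410 nm (reference 630 nm). The reaction ran 5 min with 3 µM ATP and 5 mM MnCl2 and was quenched by 20 mM EDTA. Compounds were first incubated 30 min with antibody-captured EGFR from A431 cell lysate.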

Chain of PDGF-R (P09619 33-1106, species assumed): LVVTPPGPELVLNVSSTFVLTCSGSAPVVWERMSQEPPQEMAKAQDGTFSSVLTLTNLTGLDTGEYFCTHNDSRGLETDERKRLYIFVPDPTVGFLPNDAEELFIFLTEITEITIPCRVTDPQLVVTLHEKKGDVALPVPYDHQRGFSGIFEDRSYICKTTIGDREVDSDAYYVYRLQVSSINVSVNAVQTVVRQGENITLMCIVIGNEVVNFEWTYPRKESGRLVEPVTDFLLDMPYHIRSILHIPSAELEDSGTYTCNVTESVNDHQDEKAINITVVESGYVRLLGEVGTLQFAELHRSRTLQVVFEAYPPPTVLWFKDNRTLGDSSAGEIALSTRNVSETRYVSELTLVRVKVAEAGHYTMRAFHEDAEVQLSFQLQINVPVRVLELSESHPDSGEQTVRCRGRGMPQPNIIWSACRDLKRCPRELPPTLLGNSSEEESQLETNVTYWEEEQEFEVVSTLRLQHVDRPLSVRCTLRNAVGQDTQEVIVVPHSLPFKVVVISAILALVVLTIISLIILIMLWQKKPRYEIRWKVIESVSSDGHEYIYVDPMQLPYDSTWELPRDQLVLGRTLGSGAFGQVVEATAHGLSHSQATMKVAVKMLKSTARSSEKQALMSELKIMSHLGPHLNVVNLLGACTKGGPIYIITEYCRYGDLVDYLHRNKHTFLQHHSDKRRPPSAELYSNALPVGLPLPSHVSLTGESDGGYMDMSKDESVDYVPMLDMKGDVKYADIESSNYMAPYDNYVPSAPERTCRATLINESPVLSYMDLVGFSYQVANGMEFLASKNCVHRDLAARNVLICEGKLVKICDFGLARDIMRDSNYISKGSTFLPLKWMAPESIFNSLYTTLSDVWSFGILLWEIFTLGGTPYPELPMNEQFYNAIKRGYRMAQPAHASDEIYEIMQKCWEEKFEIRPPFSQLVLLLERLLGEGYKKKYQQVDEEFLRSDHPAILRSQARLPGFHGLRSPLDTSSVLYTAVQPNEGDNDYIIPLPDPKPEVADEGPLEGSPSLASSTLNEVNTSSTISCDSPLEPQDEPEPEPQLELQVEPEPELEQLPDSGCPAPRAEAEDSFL
T1 sequence (P00533 25-1210): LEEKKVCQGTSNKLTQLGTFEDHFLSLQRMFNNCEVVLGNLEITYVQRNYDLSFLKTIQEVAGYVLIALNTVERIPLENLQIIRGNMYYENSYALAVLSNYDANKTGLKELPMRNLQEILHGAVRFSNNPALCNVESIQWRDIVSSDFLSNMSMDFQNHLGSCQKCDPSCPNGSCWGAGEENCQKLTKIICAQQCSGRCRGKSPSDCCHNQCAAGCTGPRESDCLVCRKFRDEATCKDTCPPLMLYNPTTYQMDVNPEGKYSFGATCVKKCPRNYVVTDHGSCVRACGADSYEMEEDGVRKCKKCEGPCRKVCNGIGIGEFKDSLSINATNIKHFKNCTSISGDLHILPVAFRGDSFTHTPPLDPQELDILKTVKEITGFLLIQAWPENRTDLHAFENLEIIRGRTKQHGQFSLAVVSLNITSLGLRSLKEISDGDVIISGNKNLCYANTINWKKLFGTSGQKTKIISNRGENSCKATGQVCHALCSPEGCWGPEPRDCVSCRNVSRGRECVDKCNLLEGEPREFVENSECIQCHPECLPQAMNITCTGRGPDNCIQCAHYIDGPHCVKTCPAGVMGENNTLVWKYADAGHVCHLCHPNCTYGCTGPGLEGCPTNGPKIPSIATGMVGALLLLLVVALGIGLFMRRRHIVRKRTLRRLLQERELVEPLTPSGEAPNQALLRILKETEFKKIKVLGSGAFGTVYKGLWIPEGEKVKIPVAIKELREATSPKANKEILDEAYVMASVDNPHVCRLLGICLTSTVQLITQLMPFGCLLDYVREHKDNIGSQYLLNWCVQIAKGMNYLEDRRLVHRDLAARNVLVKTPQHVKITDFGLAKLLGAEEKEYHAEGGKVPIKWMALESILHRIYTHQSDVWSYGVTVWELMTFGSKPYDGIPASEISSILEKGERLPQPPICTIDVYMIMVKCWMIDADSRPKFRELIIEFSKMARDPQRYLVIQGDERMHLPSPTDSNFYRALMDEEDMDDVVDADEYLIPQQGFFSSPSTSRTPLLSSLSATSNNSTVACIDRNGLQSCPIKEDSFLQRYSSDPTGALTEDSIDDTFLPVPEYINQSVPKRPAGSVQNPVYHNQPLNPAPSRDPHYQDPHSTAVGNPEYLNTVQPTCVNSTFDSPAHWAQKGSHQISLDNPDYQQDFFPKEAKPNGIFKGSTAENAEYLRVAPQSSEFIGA

SMILES | PDGF Kinase %Inhibition [1] [%] | Met Kinase % Inhibition [2] [%] | Biochem EGFR %Inhibition [3] [%]
Cc1c(Br)ccc2c1C(=Cc1ccc(Br)s1)C(=O)N2 [10734/C11] | 9.1 | 23.9 | 18.0
Cc1cc(C=C2C(=O)Nc3ccc(CCCl)cc32)cc(C)c1OCc1ccccc1 [10733/G07] | -6.8 | 8.5 | 18.1
O=C1Nc2ccc(I)cc2C1=Cc1cc(Cl)ccc1O [10734/B04] | 14.4 | 88.4 | 38.7
COC(=O)c1[nH]c(C)c(C=C2C(=O)Nc3ccc(S(=O)(=O)Nc4ccc(C(F)(F)F)cc4)cc32)c1C(=O)OC [10718/E07] |  | 80.5 | 13.9
CC(C)(C)c1ccc(C=C2C(=O)Nc3c(Br)cc(Br)cc32)cc1 [10734/A10] | 26.3 | 55.4 | 27.8
O=C1Nc2c(Br)cc(Br)cc2C1=Cc1cc(Br)cc(Br)c1O [10734/A07] | 21.9 | 89.3 | 15.2
CCOc1cccc(C=C2C(=O)Nc3c(Br)cc(Br)cc32)c1O [10734/A02] | -3.8 | 51.1 | 0.0
CCOc1cccc(C=C2C(=O)Nc3ccc(I)cc32)c1O [10734/B02] | -2.9 | 61.9 | -8.9
O=C1Nc2ccc(S(=O)(=O)Nc3ccc(C(F)(F)F)cc3)cc2C1=Cc1ccco1 [10718/E10] |  | 60.8 | -7.5
CC(C)(C)c1cc(C=C2C(=O)Nc3ccc(CCCl)cc32)cc(C(C)(C)C)c1OCc1ccccc1 [10733/G05] | -1.1 | 1.8 | 1.5
O=C1Nc2c(Br)cc(Br)cc2C1=Cc1ccc(O)c(Br)c1 [10734/A09] | -9.5 | 88.4 | 27.3
Cc1cc(C=C2C(=O)Nc3ccc(S(=O)(=O)Nc4ccc(C(F)(F)F)cc4)cc32)cc(C)c1OCc1ccccc1 [10733/E07] | 29.3 | -10.1 | 19.9
CCOC(=O)c1cc(C=C2C(=O)Nc3ccc(S(=O)(=O)Nc4ccc(C(F)(F)F)cc4)cc32)oc1C [10718/E06] |  | 33.4 | 2.0
COc1c(C)cc(C=C2C(=O)Nc3ccc(S(=O)(=O)Nc4ccc(C(F)(F)F)cc4)cc32)cc1C [10733/E06] | 22.4 | 10.4 | 37.3
O=C1Nc2ccc(CCCl)cc2C1=Cc1cc(Br)ccc1O [10733/G09] | -17.0 | 41.4 | 38.7
O=C1Nc2ccc(I)cc2C1=Cc1ccc(Br)s1 [10734/B11] | -5.5 | 83.6 | 50.9
COc1cc(Br)cc(C=C2C(=O)Nc3ccc(S(=O)(=O)Nc4ccc(C(F)(F)F)cc4)cc32)c1O [10733/E08] | 75.2 | 81.1 | 54.2
O=C1Nc2ccc(I)cc2C1=Cc1cccc(F)c1O [10734/B08] | -2.4 | 56.1 | 19.3
O=C1Nc2ccc(S(=O)(=O)Nc3ccc(C(F)(F)F)cc3)cc2C1=Cc1ccc2ccccc2c1O [10718/E04] |  | 87.7 | 16.4
CNS(=O)(=O)c1ccc2c(c1)C(=Cc1ccc([N+](=O)[O-])cc1)C(=O)N2 [10734/D06] | -9.1 | 30.6 | 1.3
O=C1Nc2ccc(S(=O)(=O)N3CCOCC3)cc2C1=Cc1cc([N+](=O)[O-])ccc1O [10733/F10] | -5.6 | 24.4 | 21.9
CCN(CC)c1ccc(C=C2C(=O)Nc3ccc(I)cc32)c(O)c1 [10734/B05] | 56.3 | 67.8 | 17.8
Cc1c(O)ccc(C=C2C(=O)Nc3ccc(S(=O)(=O)Nc4ccc(C(F)(F)F)cc4)cc32)c1O [10718/E09] |  | 80.8 | 17.0
Cc1cc(C=C2C(=O)Nc3ccc(S(=O)(=O)N4CCOCC4)cc32)cc(C)c1OCc1ccccc1 [10733/F07] | 1.7 | -16.4 | 19.2

SMILES | PDGF Kinase %Inhibition [1] [%] | Met Kinase % Inhibition [2] [%] | Biochem EGFR %Inhibition [3] [%]
CCOc1cccc(C=C2C(=O)Nc3ccc(S(=O)(=O)NC)cc32)c1O [10734/D02] | 6.4 | 46.0 | 5.2
O=C1Nc2ccc(I)cc2C1=Cc1ccc(O)c(Br)c1 [10734/B09] | 12.6 | 94.3 | 34.9
Cc1c(Br)ccc2c1C(=Cc1ccc(O)c(Br)c1)C(=O)N2 [10734/C09] | 11.3 | 88.6 | 36.2
CCN(CC)c1ccc(C=C2C(=O)Nc3ccc(Br)c(C)c32)c(O)c1 [10734/C05] | 3.8 | 52.7 | 9.3
CNS(=O)(=O)c1ccc2c(c1)C(=Cc1ccc(O)c(Br)c1)C(=O)N2 [10734/D09] | 42.2 | 88.0 | 21.0
O=C1Nc2ccc(I)cc2C1=Cc1cc(Br)cc(Br)c1O [10734/B07] | 18.8 | 93.2 | 65.5
Cc1c(Br)ccc2c1C(=Cc1cccc(F)c1O)C(=O)N2 [10734/C08] | 5.5 | 93.2 | 35.1
COc1c(O)ccc(C=C2C(=O)Nc3ccc(CCCl)cc32)c1[N+](=O)[O-] [10733/G11] | -4.4 | 32.6 | -1.0
Cc1c(Br)ccc2c1C(=Cc1cc(Cl)ccc1O)C(=O)N2 [10734/C04] | 24.5 | 90.7 | 38.1
O=C1Nc2ccc(S(=O)(=O)N3CCOCC3)cc2C1=Cc1cc(Br)ccc1O [10733/F09] | -0.3 | 52.8 | 30.1
O=C1Nc2c(Br)cc(Br)cc2C1=Cc1cc(Cl)cc(Cl)c1O [10734/A03] | 22.3 | 87.8 | 18.5
Cc1[nH]c(C=C2C(=O)Nc3c(Br)cc(Br)cc32)c(Br)c1Br [10717/A11] |  | 64.8 | 59.9
O=C1Nc2ccc(I)cc2C1=Cc1cc(Cl)cc(Cl)c1O [10734/B03] | 13.0 | 90.1 | 45.1
COc1cc(Br)cc(C=C2C(=O)Nc3ccc(CCCl)cc32)c1O [10733/G08] | 68.7 | 79.0 | 44.2
Cc1c(Br)ccc2c1C(=Cc1ccc(C(C)(C)C)cc1)C(=O)N2 [10734/C10] | 17.4 | 11.6 | 24.4
CNS(=O)(=O)c1ccc2c(c1)C(=Cc1cccc(F)c1O)C(=O)N2 [10734/D08] | 2.0 | 49.8 | -13.7
O=C1Nc2ccc(CCCl)cc2C1=Cc1cc([N+](=O)[O-])ccc1O [10733/G10] | -58.0 | 41.9 | 18.2
O=C1Nc2ccc(S(=O)(=O)Nc3ccc(C(F)(F)F)cc3)cc2C1=Cc1ccc(Cl)c([N+](=O)[O-])c1 [10718/E08] |  | 69.6 | 9.3
COc1c([N+](=O)[O-])cc(C=C2C(=O)Nc3ccc(CCCl)cc32)cc1C(C)(C)C [10733/G03] | 12.7 | 30.5 | 0.7
O=C1Nc2c(Br)cc(Br)cc2C1=Cc1ccc(Br)s1 [10734/A11] | 5.5 | 51.9 | 12.5
O=C1Nc2c(Br)cc(Br)cc2C1=Cc1cc(Cl)ccc1O [10734/A04] | 11.7 | 68.0 | 11.4
COc1c([N+](=O)[O-])cc(C=C2C(=O)Nc3ccc(S(=O)(=O)Nc4ccc(C(F)(F)F)cc4)cc32)cc1C(C)(C)C [10733/E03] | 43.1 | 26.8 | 10.7
O=C1Nc2ccc(S(=O)(=O)Nc3ccc(C(F)(F)F)cc3)cc2C1=Cc1ccc([N+](=O)[O-])o1 [10718/E11] |  | 37.5 | -15.2
CCOC(=O)CCc1c(C(=O)OCC)[nH]c(C=C2C(=O)Nc3ccc(S(=O)(=O)Nc4ccc(C(F)(F)F)cc4)cc32)c1CC(=O)OCC [10718/E05] |  | 32.2 | -3.1
